Experimental data taken from patent US20120283293A1, “Methods of neuroprotection involving Prostaglandin E2 EP4 (PGE2 EP4) receptor activation” (The Board of Trustees of the Leland Stanford Junior …, priority 2011, published 2012).

Key:
BV-2 cells = assay: Griess assay of nitrite production (NOS activity) in LPS-treated BV-2 cells; assay type: cell-based, murine
Procedure: Nitric oxide synthase (NOS) activity was measured using the Griess assay to measure nitrite production (Promega, Madison, Wis.). BV-2 cells were plated at 5×10^4 cells/well in 24-well plates, allowed to reach 90% confluence, and incubated +/−LPS (10 ng/ml)+/−AE1-329 (1 nM-1 μM) or vehicle for 24 h. […] cell culture medium and nitrite standards ([…]) were transferred to a 96-well plate and mixed with 50 μl sulphanilamide solution and 50 μl NED solution. After a 10 min incubation at room temperature, absorbance was read at 530 nm on a SpectraMax M5 plate reader (Molecular Devices, Sunnyvale, Calif.). Experiments were repeated in triplicate.
Inflammatory stimuli such as LPS can activate microglia through the CD14/TLR4 receptor complex and induce the expression of pro-inflammatory enzymes and cytokines (Fassbender et al., 2004; Walter et al., 2007). LPS-induced inflammatory responses were tested in the absence and presence of pharmacologic activation of EP4 receptor with the selective EP4 agonist AE1-329. BV-2 cells were treated with LPS (10 ng/ml) in the presence or absence of the selective EP4 agonist AE1-329 (1 μM) for 6 h, and pro-inflammatory gene expression was measured using qPCR (see FIG. 2). […] In FIG. 2D, EP4 regulation of iNOS activity was investigated.

[1] = system: PKA activity in BV-2 cells; assay: cAMP dependent protein kinase A (PKA) activity assay in BV-2 cells; assay type: cell-based, murine; conditions: AE1-329 100 nM alone or with LPS 100 ng/ml
Procedure: PKA activity was determined using the PKA kinase activity assay kit (Assay designs, Ann Arbor, Mich.). Cells were harvested 3 minutes after stimulation, and ELISA was carried out according to the manufacturer's instructions. Kinase activity was calculated as (sample absorbance—blank absorbance)/μg protein and normalized to the average value of vehicle.
Downstream signaling events for EP4, a […] receptor, were investigated in LPS treated BV-2 cells (see FIG. 3). […] The increase in PKA activity from EP4 receptor signaling was blocked with the PKA inhibitor H89 at doses of 5 μM and 10 μM (FIG. 3B).

[2] = system: hippocampus of LPS-treated mice; assay: LPS-induced hippocampal pro-inflammatory gene response in mice (qPCR, microglial morphology); assay type: in vivo, mouse
Procedure: The murine in vivo studies were conducted in accordance with the National Institutes of Health guidelines for the use of experimental animals and protocols were approved by the Institutional Animal Care and Use Committee. C57B6 EP4 floxed mice (Schneider et al., 2004) were kindly provided by Drs. Richard and Matthew Breyer (Vanderbilt University School of Medicine, Nashville, Tenn.), and C57B6 Cd11bCre mice (Boillee et al., 2006) were kindly provided by Dr. G. Kollias (Alexander Fleming Biomedical Sciences Research Center, Vari, Greece) and Dr. Donald Cleveland (UCSD, San Diego, Calif.). All mice were housed in an environment controlled for lighting (12 hour light/dark cycle), temperature, and humidity, with food and water available ad libitum. Cd11bCre:EP4f/f and Cd11bCre:EP4+/+ mice were generated by serial crosses of C57B6 Cd11bCre and EP4f/f and EP4+/+ lines. Male Cd11bCre: EP4f/f and Cd11bCre: EP4+/+ mice were treated with either saline or LPS (5 mg/kg intraperitoneally: n=5-8 per group, 13 months of age). 24 hours after injection, mice were euthanized and brain tissue was harvested and frozen at −80° C. For pharmacological experiments, C57B6 male mice (Jackson Laboratories, Bar Harbor, Me.; n=7 or 8 per group) received an injection of saline or LPS (5 mg/kg, i.p.+/−vehicle or AE1-329 ([…]) (Qin et al., 2007; Nagamatsu et al., 2006). Mice were euthanized 6 hours later, and brain tissue was harvested and frozen at −80° C. For collection of plasma, C57B6 male mice (n=5 per group) received an injection of saline or LPS (5 mg/kg, i.p.)+/−AE1-329 ([…] s.c.) or vehicle. Mice were deeply anesthetized with isoflurane at 3 h and blood was collected in a 1-ml syringe pre-coated with EDTA (250 mM) and placed in EDTA coated tubes. […]
qPCR was carried out as previously described (Liang et al., 2008). […] The mRNA level for each target gene was quantified by SYBR Green-based qPCR using the QuantiTect SYBR Green PCR kit (Qiagen). […] Quantification was performed using the standard curve method. […]

[3] = mice, LPS 5 mg/kg i.p., AE1-329 300 μg/kg s.c., 6 hours

## COCc1ccccc1CC[C@H](O)/C=C/[C@H]1[C@H](O)CC(=O)[C@@H]1SCCCSCC(=O)O [AE1-329]
BV-2 cells; BV-2 cells, 1, 10, 100 and 1000 nM AE1-329, 24 hours
  LPS-induced NO production, dose response: dose-dependently reduced NO production
BV-2 cells; BV-2 cells, LPS 10 ng/ml + 10 nM AE1-329, 24 hours (LPS alone 21.76 μM)
  nitrite concentration: 6.57 µM
BV-2 cells; BV-2 cells, LPS 10 ng/ml, 10 nM AE1-329, 24 hours
  decrease of LPS-induced NO production (nitrite): 68.9%
[1]
  PKA activity: significantly increased
[2]; [3]
  LPS-induced COX-2, iNOS, TNF-α, IL-6 and IL-1β mRNA levels in hippocampus: significantly attenuated
  hippocampal expression of NADPH oxidase subunits gp91phox, p67phox and p47phox: trend toward decreased expression
[2]; mouse hippocampal CA1, 6 hours after LPS + AE1-329
  microglial morphological changes in response to LPS (Iba1 staining): modestly decreased
